Assay results taken from ChEMBL document CHEMBL5108051, “Improving the Antimicrobial Performance of Amphiphilic Cationic Antimicrobial Peptides Using Glutamic Acid Full-Scan and Positive Charge Compensation Strategies” (J Med Chem, 2022).
Values after ≈ are worked out from the molar mass of the structure shown. Active and inactive are the calls of the source. No cut-off for these calls is given here. Bridge positions count the residues as written; N and C are the ends. Square brackets hold non-standard residues; d marks the D form. Peptide text beside a SMILES is read from it. * marks the point of attachment. X1 = CC[C@H](C)CCCCC(=O)*; Dab = NCC[C@H](N)C(=O)O

Columns and labels:
Escherichia coli [1] = assay: Antibacterial activity against Escherichia coli ATCC 25922 assessed as growth inhibition measured after 18 to 24 hrs by CLSI based broth microdilution method; type: functional; conditions: time 18-24 hrs
Pseudomonas aeruginosa = assay: Antibacterial activity against Pseudomonas aeruginosa ATCC 27853 assessed as growth inhibition measured after 18 to 24 hrs by CLSI based broth microdilution method; type: functional; conditions: time 18-24 hrs
Staphylococcus aureus [2] = assay: Antibacterial activity against Staphylococcus aureus ATCC 25923 assessed as growth inhibition measured after 18 to 24 hrs by CLSI based broth microdilution method; type: functional; conditions: time 18-24 hrs
Bacillus subtilis = assay: Antibacterial activity against Bacillus subtilis ATCC 23857 assessed as growth inhibition measured after 18 to 24 hrs by CLSI based broth microdilution method; type: functional; conditions: time 18-24 hrs
Cell membrane [3] = assay: Induction of cell membrane disruption in Escherichia coli ATCC 25922 assessed as cell morphological damage measured after 30 mins by […] electron microscope analysis; type: subcellular
[4] = Stability of the compound in mouse serum at 10 mM assessed as half life by RP-HPLC analysis; type: ADME, cell-free
Cell membrane [5] = assay: Induction of cell membrane disruption in Staphylococcus aureus ATCC 25923 assessed as cell morphological damage measured after 120 mins by […] electron microscope analysis; type: subcellular
Cell membrane [6] = assay: Induction of cell membrane disruption in Escherichia coli ATCC 25922 assessed as cell morphological damage measured after 120 mins by […] electron microscope analysis; type: subcellular
Cell membrane [7] = assay: Induction of cell membrane disruption in Staphylococcus aureus ATCC 25923 assessed as increase in PI uptake measured after 30 to 120 mins by propidium iodide staining based FACS flow cytometry analysis (reference value: 15%); type: subcellular; conditions: time 30-120 min
Cell membrane [8] = assay: Induction of outer membrane permeabilization to NPN in Escherichia coli ATCC 25922 cells assessed as increase in fluorescence intensity by NPN fluorescent dye based microplate reader assay; type: subcellular
Cell membrane [9] = assay: Induction of inner membrane permeabilization in Escherichia coli ML-35 ATCC 43837 assessed as increase in absorbance at 1 to 4 times MIC measured at 420 nm in presence of ONPG by microplate reader assay; type: subcellular; conditions: DDE = dose-dependent effect
Cell membrane [10] = assay: Induction of cytoplasmic membrane depolarization in Escherichia coli ATCC 25922 assessed as increase in fluorescence intensity measured within 1 min by DiSC3-5 dye based fluorescence method; type: subcellular
Escherichia coli [11] = assay: Induction of cell membrane damage in Escherichia coli ATCC 25922 assessed as increase in nucleic acid leakage by microplate reader assay; type: functional, organism-based; conditions: time 0-6 hrs, TDE = time-dependent effect
Staphylococcus aureus [12] = assay: Induction of cell membrane damage in Staphylococcus aureus ATCC 25923 assessed as increase in nucleic acid leakage by microplate reader assay; type: functional, organism-based; conditions: time 0-6 hrs, TDE = time-dependent effect
Staphylococcus aureus [13] = assay: Antibacterial activity against Staphylococcus aureus ATCC 25923 assessed as resistance development measured after 15 passages at sub-MIC concentration by resistance development assay; type: functional, organism-based
Escherichia coli [14] = assay: Antibacterial activity against Escherichia coli ATCC 25922 assessed as resistance development measured after 15 passages at sub-MIC concentration by resistance development assay; type: functional, organism-based
Staphylococcus aureus [15] = assay: Antibacterial activity against Staphylococcus aureus ATCC 25923 assessed as fractional inhibitory concentration index in presence of vancomycin by checkerboard assay; type: functional
Staphylococcus aureus [16] = assay: Antibacterial activity against Staphylococcus aureus ATCC 25923 assessed as fractional inhibitory concentration index in presence of kanamycin by checkerboard assay; type: functional
Staphylococcus aureus [17] = assay: Antibacterial activity against Staphylococcus aureus ATCC 25923 assessed as fractional inhibitory concentration index in presence of gentamicin by checkerboard assay; type: functional
Staphylococcus aureus [18] = assay: Antibacterial activity against rifampin resistant Staphylococcus aureus ATCC 25923 assessed as fractional inhibitory concentration index in presence of rifampin by checkerboard assay; type: functional
Staphylococcus aureus [19] = assay: Antibacterial activity against rifampin resistant Staphylococcus aureus ATCC 25923 assessed as fractional inhibitory concentration index in presence of vancomycin by checkerboard assay; type: functional
Staphylococcus aureus [20] = assay: Antibacterial activity against rifampin resistant Staphylococcus aureus ATCC 25923 assessed as fractional inhibitory concentration index in presence of kanamycin by checkerboard assay; type: functional
Staphylococcus aureus [21] = assay: Antibacterial activity against rifampin resistant Staphylococcus aureus ATCC 25923 assessed as fractional inhibitory concentration index in presence of gentamicin by checkerboard assay; type: functional
Staphylococcus aureus [22] = assay: Antibacterial activity against gentamicin resistant Staphylococcus aureus ATCC 25923 assessed as fractional inhibitory concentration index in presence of rifampin by checkerboard assay; type: functional
Staphylococcus aureus [23] = assay: Antibacterial activity against gentamicin resistant Staphylococcus aureus ATCC 25923 assessed as fractional inhibitory concentration index in presence of kanamycin by checkerboard assay; type: functional
Staphylococcus aureus [24] = assay: Antibacterial activity against gentamicin resistant Staphylococcus aureus ATCC 25923 assessed as fractional inhibitory concentration index in presence of gentamicin by checkerboard assay; type: functional
Escherichia coli [25] = assay: Antibacterial activity against Escherichia coli ATCC 25922 assessed as fractional inhibitory concentration index in presence of rifampin by checkerboard assay; type: functional
Escherichia coli [26] = assay: Antibacterial activity against Escherichia coli ATCC 25922 assessed as fractional inhibitory concentration index in presence of vancomycin by checkerboard assay; type: functional
Escherichia coli [27] = assay: Antibacterial activity against Escherichia coli ATCC 25922 assessed as fractional inhibitory concentration index in presence of gentamicin by checkerboard assay; type: functional
Escherichia coli [28] = assay: Antibacterial activity against rifampin resistant Escherichia coli ATCC 25922 assessed as fractional inhibitory concentration index in presence of rifampin by checkerboard assay; type: functional
Escherichia coli [29] = assay: Antibacterial activity against rifampin resistant Escherichia coli ATCC 25922 assessed as fractional inhibitory concentration index in presence of kanamycin by checkerboard assay; type: functional
Escherichia coli [30] = assay: Antibacterial activity against rifampin resistant Escherichia coli ATCC 25922 assessed as fractional inhibitory concentration index in presence of gentamicin by checkerboard assay; type: functional
Escherichia coli [31] = assay: Antibacterial activity against gentamicin resistant Escherichia coli ATCC 25922 assessed as fractional inhibitory concentration index in presence of rifampin by checkerboard assay; type: functional
Escherichia coli [32] = assay: Antibacterial activity against gentamicin resistant Escherichia coli ATCC 25922 assessed as fractional inhibitory concentration index in presence of kanamycin by checkerboard assay; type: functional
Escherichia coli [33] = assay: Antibacterial activity against gentamicin resistant Escherichia coli ATCC 25922 assessed as fractional inhibitory concentration index in presence of gentamicin by checkerboard assay; type: functional
[34] = Acute toxicity in BALB/c mouse assessed as mortality at 80 mg/kg, ip administered as single dose measured for 7 days; type: organism-based; conditions: in vivo, time 7 day
[35] = Acute toxicity in BALB/c mouse assessed as pathological changes in heart at 20 to 80 mg/kg, ip administered as single dose measured for 7 days by H and E staining method; type: organism-based; conditions: in vivo, 168 h, dose 20-80 mg/kg, time 7 day
[36] = Acute toxicity in BALB/c mouse assessed as pathological changes in liver at 20 to 80 mg/kg, ip administered as single dose measured for 7 days by H and E staining method; type: organism-based; conditions: in vivo, 168 h, dose 20-80 mg/kg, time 7 day
[37] = Retention time of the compound by RP-HPLC analysis; type: physicochemical

| Structure (SMILES) | MIC (Escherichia coli [1]) | MIC (Pseudomonas aeruginosa) | MIC (Staphylococcus aureus [2]) | MIC (Bacillus subtilis) | Activity (Cell membrane [3]) | half-life at 10000 µM [4] | Activity (Cell membrane [5]) | Activity (Cell membrane [6]) | Activity (Cell membrane [7]) | Activity (Cell membrane [8]) | Activity (Cell membrane [9]) | Activity (Cell membrane [10]) | Activity (Escherichia coli [11]) | Activity (Staphylococcus aureus [12]) | Activity (Staphylococcus aureus [13]) | Activity (Escherichia coli [14]) | fractional inhibitory concentration index (FICI) (Staphylococcus aureus [15]) | fractional inhibitory concentration index (FICI) (Staphylococcus aureus [16]) | fractional inhibitory concentration index (FICI) (Staphylococcus aureus [17]) | fractional inhibitory concentration index (FICI) (Staphylococcus aureus [18]) | further results |
| --- | --- | --- | --- | --- | --- | --- | --- | --- | --- | --- | --- | --- | --- | --- | --- | --- | --- | --- | --- | --- | --- |
| CC(C)C[C@H](NC(=O)[C@H](CC(C)C)NC(=O)[C@H](CCC(=O)O)NC(=O)[C@H](CCCCN)NC(=O)[C@H](CC(C)C)NC(=O)[C@H](CC(C)C)NC(=O)[C@H](CCCCN)NC(=O)[C@H](C)NC(=O)[C@@H](NC(=O)[C@H](CCCCN)NC(=O)[C@@H]1CCCN1C(=O)[C@H](CC(C)C)NC(=O)[C@@H](N)Cc1ccccc1)C(C)C)C(N)=O (H-FLPKVAKLLKELL-NH2) | 8 µM (≈ 12.1 µg/mL) | 8 µM (≈ 12.1 µg/mL) | 8 µM (≈ 12.1 µg/mL) | 4 µM (≈ 6.04 µg/mL) | Active | 9.64 h | Active | Active | 49.3% | Active | Dde | Active | Tde | Tde | Active | Active | 0.75 | 0.625 | 0.625 | 0.75 | fractional inhibitory concentration index (FICI) (Staphylococcus aureus [19]): 1; fractional inhibitory concentration index (FICI) (Staphylococcus aureus [20]): 0.625; fractional inhibitory concentration index (FICI) (Staphylococcus aureus [21]): 0.5; fractional inhibitory concentration index (FICI) (Staphylococcus aureus [22]): 0.625; fractional inhibitory concentration index (FICI) (Staphylococcus aureus [23]): 1; fractional inhibitory concentration index (FICI) (Staphylococcus aureus [24]): 0.75; fractional inhibitory concentration index (FICI) (Escherichia coli [25]): 0.625; fractional inhibitory concentration index (FICI) (Escherichia coli [26]): 0.375; fractional inhibitory concentration index (FICI) (Escherichia coli [27]): 0.5; fractional inhibitory concentration index (FICI) (Escherichia coli [28]): 0.75; fractional inhibitory concentration index (FICI) (Escherichia coli [29]): 0.75; fractional inhibitory concentration index (FICI) (Escherichia coli [30]): 0.75; fractional inhibitory concentration index (FICI) (Escherichia coli [31]): 0.625; fractional inhibitory concentration index (FICI) (Escherichia coli [32]): 1.25; fractional inhibitory concentration index (FICI) (Escherichia coli [33]): 1.25; mortality at 168 h ([34]; BALB/c, read-out: Activity): 40%; Activity [35]: Non-Toxic; Activity [36]: Non-Toxic; Retention_time [37]: 16.475 min |
| CC[C@H](C)CCCCC(=O)N[C@@H](CCN)C(=O)N[C@H](C(=O)N[C@@H](CCN)C(=O)N[C@H]1CCNC(=O)[C@H]([C@@H](C)O)NC(=O)[C@H](CCN)NC(=O)[C@H](CCN)NC(=O)[C@H](CC(C)C)NC(=O)[C@@H](Cc2ccccc2)NC(=O)[C@H](CCN)NC1=O)[C@@H](C)O (X1-[Dab]T[Dab][Dab][Dab][dF]L[Dab][Dab]T; lactam 4-C) | 4 µM (≈ 4.81 µg/mL) | 2 µM (≈ 2.41 µg/mL) | 16 µM (≈ 19.3 µg/mL) | 4 µM (≈ 4.81 µg/mL) | Active | 12.5 h | Active | Active | 45.8% | Active | Dde | Active | Tde | Tde | Active | Active | 1.0625 | 0.75 | 0.75 | 1 | fractional inhibitory concentration index (FICI) (Staphylococcus aureus [19]): 1; fractional inhibitory concentration index (FICI) (Staphylococcus aureus [20]): 0.625; fractional inhibitory concentration index (FICI) (Staphylococcus aureus [21]): 0.375; fractional inhibitory concentration index (FICI) (Staphylococcus aureus [22]): 0.5625; fractional inhibitory concentration index (FICI) (Staphylococcus aureus [23]): 0.625; fractional inhibitory concentration index (FICI) (Staphylococcus aureus [24]): 0.5; fractional inhibitory concentration index (FICI) (Escherichia coli [25]): 0.1875; fractional inhibitory concentration index (FICI) (Escherichia coli [26]): 0.375; fractional inhibitory concentration index (FICI) (Escherichia coli [27]): 0.375; fractional inhibitory concentration index (FICI) (Escherichia coli [28]): 0.5625; fractional inhibitory concentration index (FICI) (Escherichia coli [29]): 0.375; fractional inhibitory concentration index (FICI) (Escherichia coli [30]): 0.375; fractional inhibitory concentration index (FICI) (Escherichia coli [31]): 0.375; fractional inhibitory concentration index (FICI) (Escherichia coli [32]): 0.375; fractional inhibitory concentration index (FICI) (Escherichia coli [33]): 0.625; Activity ([34]; ip, 80 mg/kg, 168 h): Toxic; Activity [35]: Non-Toxic; Activity [36]: Non-Toxic; Retention_time [37]: 13.125 min |
